Reference: patent US11427549B2, “Pyrimidinyloxy benzo-fused compounds as herbicides” (FMC Corporation, priority 2017, dated 2022)

Experiments:
[1] = tested on: barnyardgrass (Echinochloa crus-galli); assay: Test A preemergence, barnyardgrass; format: in vivo; conditions: Echinochloa crus-galli, pre-emergence, 240 h, 0 to 100 scale (0 no effect, 100 complete control), read-out: Plant response rating, Barnyardgrass; for pest or weed control at 31 g/ha: 31 g ai/ha; for pest or weed control at 125 g/ha: 125 g ai/ha
[2] = tested on: kochia (Kochia scoparia); assay: Test A preemergence, kochia; format: in vivo; conditions: Bassia scoparia, pre-emergence, 240 h, 0 to 100 scale (0 no effect, 100 complete control), read-out: Plant response rating, Kochia; for pest or weed control at 31 g/ha: 31 g ai/ha; for pest or weed control at 125 g/ha: 125 g ai/ha
[3] = tested on: ragweed (common ragweed, Ambrosia elatior); assay: Test A preemergence, ragweed; format: in vivo; conditions: Ambrosia artemisiifolia, pre-emergence, 240 h, 0 to 100 scale (0 no effect, 100 complete control), read-out: Plant response rating, Ragweed; for pest or weed control at 31 g/ha: 31 g ai/ha; for pest or weed control at 125 g/ha: 125 g ai/ha
[4] = tested on: ryegrass, Italian (Italian ryegrass, Lolium multiflorum); assay: Test A preemergence, ryegrass, Italian; format: in vivo; conditions: Lolium multiflorum, pre-emergence, 240 h, 0 to 100 scale (0 no effect, 100 complete control), read-out: Plant response rating, Ryegrass, Italian; for pest or weed control at 31 g/ha: 31 g ai/ha; for pest or weed control at 125 g/ha: 125 g ai/ha
[5] = tested on: pigweed (Amaranthus retroflexus); assay: Test A preemergence, pigweed; format: in vivo; conditions: Amaranthus retroflexus, pre-emergence, 240 h, 0 to 100 scale (0 no effect, 100 complete control), read-out: Plant response rating, Pigweed; for pest or weed control at 31 g/ha: 31 g ai/ha; for pest or weed control at 125 g/ha: 125 g ai/ha
[6] = tested on: barnyardgrass (Echinochloa crus-galli); assay: Test A postemergence, barnyardgrass; format: in vivo; conditions: Echinochloa crus-galli, post-emergence, 240 h, 0 to 100 scale (0 no effect, 100 complete control), read-out: Plant response rating, Barnyardgrass; for pest or weed control at 31 g/ha: 31 g ai/ha; for pest or weed control at 125 g/ha: 125 g ai/ha
[7] = tested on: kochia (Kochia scoparia); assay: Test A postemergence, kochia; format: in vivo; conditions: Bassia scoparia, post-emergence, 240 h, 0 to 100 scale (0 no effect, 100 complete control), read-out: Plant response rating, Kochia; for pest or weed control at 31 g/ha: 31 g ai/ha; for pest or weed control at 125 g/ha: 125 g ai/ha
[8] = tested on: ragweed (common ragweed, Ambrosia elatior); assay: Test A postemergence, ragweed; format: in vivo; conditions: Ambrosia artemisiifolia, post-emergence, 240 h, 0 to 100 scale (0 no effect, 100 complete control), read-out: Plant response rating, Ragweed; for pest or weed control at 31 g/ha: 31 g ai/ha; for pest or weed control at 125 g/ha: 125 g ai/ha
[9] = tested on: ryegrass, Italian (Italian ryegrass, Lolium multiflorum); assay: Test A postemergence, ryegrass, Italian; format: in vivo; conditions: Lolium multiflorum, post-emergence, 240 h, 0 to 100 scale (0 no effect, 100 complete control), read-out: Plant response rating, Ryegrass, Italian; for pest or weed control at 31 g/ha: 31 g ai/ha; for pest or weed control at 125 g/ha: 125 g ai/ha
[10] = tested on: pigweed (Amaranthus retroflexus); assay: Test A postemergence, pigweed; format: in vivo; conditions: Amaranthus retroflexus, post-emergence, 240 h, 0 to 100 scale (0 no effect, 100 complete control), read-out: Plant response rating, Pigweed; for pest or weed control at 31 g/ha: 31 g ai/ha; for pest or weed control at 125 g/ha: 125 g ai/ha
[11] = tested on: wheat (Triticum aestivum); assay: Test A postemergence, wheat; format: in vivo; conditions: Triticum aestivum, post-emergence, 240 h, 0 to 100 scale (0 no effect, 100 complete control), read-out: Plant response rating, Wheat; for plant injury at 31 g/ha: 31 g ai/ha; for plant injury at 125 g/ha: 125 g ai/ha
[12] = tested on: corn (Zea mays); assay: Test A postemergence, corn; format: in vivo; conditions: Zea mays, post-emergence, 240 h, 0 to 100 scale (0 no effect, 100 complete control); for Corn plant response rating (crop injury, 0 = no effect, 100 = complete kill) at 31 g/ha: 31 g ai/ha; for Corn plant response rating (crop injury, 0 = no effect, 100 = complete kill) at 125 g/ha: 125 g ai/ha
[13] = tested on: blackgrass (Alopecurus myosuroides); assay: Test A postemergence, blackgrass; format: in vivo; conditions: Alopecurus myosuroides, post-emergence, 240 h, 0 to 100 scale (0 no effect, 100 complete control), read-out: Plant response rating, Blackgrass; for pest or weed control at 31 g/ha: 31 g ai/ha; for pest or weed control at 125 g/ha: 125 g ai/ha
[14] = tested on: galium (catchweed bedstraw, Galium aparine); assay: Test A postemergence, galium; format: in vivo; conditions: Galium, post-emergence, 240 h, 0 to 100 scale (0 no effect, 100 complete control), read-out: Plant response rating, Galium; for pest or weed control at 31 g/ha: 31 g ai/ha; for pest or weed control at 125 g/ha: 125 g ai/ha
[15] = tested on: rice (Oryza sativa); assay: Test B flooded paddy test, rice; conditions: Oryza sativa, read-out: Plant response rating, Rice (0 to 100 scale, 0 is no effect, 100 is complete control)
[16] = tested on: ducksalad (Heteranthera limosa); assay: Test B flooded paddy test, ducksalad; conditions: Heteranthera limosa, read-out: Plant response rating, Ducksalad (0 to 100 scale, 0 is no effect, 100 is complete control)
[17] = tested on: barnyardgrass (Echinochloa crus-galli); assay: Test B flooded paddy test, barnyardgrass; conditions: Echinochloa crus-galli, read-out: Plant response rating, Barnyardgrass (0 to 100 scale, 0 is no effect, 100 is complete control)

CN1C(=O)c2cccc(Oc3ncc(Cl)cn3)c2C1CCCC(F)(F)F (stereo not shown) [Compound 12, 4-[(5-Chloro-2-pyrimidinyl)oxy]-2,3-dihydro-2-methyl-3-(4,4,4-trifluorobutyl)-1H-isoindol-1-one]
10%: pest or weed control at 125 g/ha [7] | Corn plant response rating (crop injury, 0 = no effect, 100 = complete kill) at 125 g/ha [12] | pest or weed control at 125 g/ha [14]
0%: pest or weed control at 31 g/ha [1] | pest or weed control at 125 g/ha [1] | pest or weed control at 31 g/ha [2] | pest or weed control at 125 g/ha [2] | pest or weed control at 31 g/ha [3] | pest or weed control at 125 g/ha [3] | pest or weed control at 31 g/ha [4] | pest or weed control at 125 g/ha [4] | pest or weed control at 31 g/ha [5] | pest or weed control at 125 g/ha [5] | pest or weed control at 31 g/ha [6] | pest or weed control at 125 g/ha [6] | pest or weed control at 31 g/ha [7] | pest or weed control at 31 g/ha [8] | pest or weed control at 31 g/ha [9] | pest or weed control at 125 g/ha [9] | pest or weed control at 31 g/ha [10] | plant injury at 31 g/ha [11] | plant injury at 125 g/ha [11] | Corn plant response rating (crop injury, 0 = no effect, 100 = complete kill) at 31 g/ha [12] | pest or weed control at 31 g/ha [13] | pest or weed control at 125 g/ha [13] | pest or weed control at 31 g/ha [14] | plant injury at 250 g/ha [15] | pest or weed control at 250 g/ha [16] | pest or weed control at 250 g/ha [17]
20%: pest or weed control at 125 g/ha [8]
30%: pest or weed control at 125 g/ha [10]

FC(F)(F)CCCC1CCc2cccc(Oc3ncc(Cl)cn3)c21 (stereo not shown) [Compound 9, 5-Chloro-2-[[2,3-dihydro-3-(4,4,4-trifluorobutyl)-1H-inden-4-yl]oxy]pyrimidine]
100%: pest or weed control at 125 g/ha [5] | pest or weed control at 125 g/ha [10] | pest or weed control at 250 g/ha [16]
20%: pest or weed control at 31 g/ha [6] | plant injury at 125 g/ha [11] | Corn plant response rating (crop injury, 0 = no effect, 100 = complete kill) at 31 g/ha [12] | pest or weed control at 31 g/ha [13] | pest or weed control at 31 g/ha [14]
90%: pest or weed control at 125 g/ha [1]
50%: pest or weed control at 125 g/ha [2] | pest or weed control at 125 g/ha [4] | pest or weed control at 125 g/ha [6] | pest or weed control at 31 g/ha [7] | plant injury at 250 g/ha [15]
30%: pest or weed control at 125 g/ha [9] | Corn plant response rating (crop injury, 0 = no effect, 100 = complete kill) at 125 g/ha [12] | pest or weed control at 125 g/ha [14]
10%: pest or weed control at 31 g/ha [1] | pest or weed control at 31 g/ha [2] | pest or weed control at 125 g/ha [3] | pest or weed control at 31 g/ha [4] | pest or weed control at 31 g/ha [5] | pest or weed control at 125 g/ha [8] | pest or weed control at 31 g/ha [9] | plant injury at 31 g/ha [11]
0%: pest or weed control at 31 g/ha [3] | pest or weed control at 31 g/ha [8]
80%: pest or weed control at 125 g/ha [7] | pest or weed control at 31 g/ha [10] | pest or weed control at 125 g/ha [13]
70%: pest or weed control at 250 g/ha [17]

O=C1OC(CCC(F)(F)F)c2c(Oc3ncc(Cl)cn3)cccc21 (stereo not shown) [Compound 4, 4-[(5-Chloro-2-pyrimidinyl)oxy]-3-(3,3,3-trifluoropropyl)-1(3H)-isobenzofuranone]
80%: pest or weed control at 125 g/ha [8] | plant injury at 125 g/ha [11] | Corn plant response rating (crop injury, 0 = no effect, 100 = complete kill) at 125 g/ha [12]
40%: pest or weed control at 31 g/ha [13]
45%: plant injury at 250 g/ha [15]
90%: pest or weed control at 31 g/ha [2] | pest or weed control at 125 g/ha [6] | pest or weed control at 31 g/ha [7] | pest or weed control at 125 g/ha [9] | pest or weed control at 31 g/ha [10] | pest or weed control at 125 g/ha [13]
35%: pest or weed control at 250 g/ha [17]
70%: pest or weed control at 31 g/ha [1] | pest or weed control at 125 g/ha [3]
0%: pest or weed control at 31 g/ha [8]
30%: pest or weed control at 31 g/ha [6] | Corn plant response rating (crop injury, 0 = no effect, 100 = complete kill) at 31 g/ha [12]
100%: pest or weed control at 125 g/ha [1] | pest or weed control at 125 g/ha [2] | pest or weed control at 125 g/ha [4] | pest or weed control at 31 g/ha [5] | pest or weed control at 125 g/ha [5] | pest or weed control at 125 g/ha [7] | pest or weed control at 125 g/ha [10] | pest or weed control at 31 g/ha [14] | pest or weed control at 125 g/ha [14] | pest or weed control at 250 g/ha [16]
20%: pest or weed control at 31 g/ha [3] | pest or weed control at 31 g/ha [4] | pest or weed control at 31 g/ha [9] | plant injury at 31 g/ha [11]

O=C1O[C@H](CCCC(F)(F)F)c2c(Oc3ncc(Cl)cn3)cccc21 [Compound 3, (3R)-4-[(5-Chloro-2-pyrimidinyl)oxy]-3-(4,4,4-trifluorobutyl)-1-(3H)-isobenzofuranone]
10%: pest or weed control at 31 g/ha [8]
50%: Corn plant response rating (crop injury, 0 = no effect, 100 = complete kill) at 31 g/ha [12]
60%: pest or weed control at 125 g/ha [8] | plant injury at 31 g/ha [11] | plant injury at 250 g/ha [15] | pest or weed control at 250 g/ha [17]
30%: pest or weed control at 31 g/ha [6]
70%: pest or weed control at 31 g/ha [4]
40%: pest or weed control at 31 g/ha [9]
100%: pest or weed control at 125 g/ha [1] | pest or weed control at 125 g/ha [2] | pest or weed control at 125 g/ha [4] | pest or weed control at 31 g/ha [5] | pest or weed control at 125 g/ha [5] | pest or weed control at 125 g/ha [7] | pest or weed control at 125 g/ha [9] | pest or weed control at 31 g/ha [10] | pest or weed control at 125 g/ha [10] | pest or weed control at 125 g/ha [13] | pest or weed control at 31 g/ha [14] | pest or weed control at 125 g/ha [14]
80%: pest or weed control at 31 g/ha [2] | Corn plant response rating (crop injury, 0 = no effect, 100 = complete kill) at 125 g/ha [12] | pest or weed control at 31 g/ha [13]
90%: pest or weed control at 31 g/ha [1] | pest or weed control at 125 g/ha [6] | pest or weed control at 31 g/ha [7] | plant injury at 125 g/ha [11] | pest or weed control at 250 g/ha [16]
0%: pest or weed control at 31 g/ha [3] | pest or weed control at 125 g/ha [3]
